Usually CC50 stands for the concentration giving 50% cytotoxicity. The low end stands for harm at low concentration, the high end for better tolerance by the cells. What is called IC50 is the concentration needed to halve the response being measured. Read a low IC50 as inhibition by little substance.

For one series, the system named is RD. The series can be described thus: Cytotoxicity against human RD cells incubated for 72 hrs by MTT assay. The series is classed as functional.
The nature of series [1]: Cytotoxicity against human Mel-MS cells incubated for 72 hrs by MTT assay. The format is functional. (In general: Formazan colour is commonly taken as a measure of viable cells.)
For the next series, the system named is HepG2. Kind of series: Cytotoxicity against human HepG2 cells incubated for 72 hrs by MTT assay. The format is functional.
Another series relates to A549. Kind of series: Cytotoxicity against human A549 cells incubated for 72 hrs by MTT assay. The format is functional.
For another series, the system named is HCT-116. The series can be described thus: Cytotoxicity against human HCT-116 cells incubated for 72 hrs by MTT assay. The series is classed as functional.
In a further series the test system is PC-3. The series can be described thus: Cytotoxicity against human PC-3 cells incubated for 72 hrs by MTT assay. The format is functional.
Series [2] in a line: Cytotoxicity against human MCF-10A cells incubated for 72 hrs by MTT assay. The format is toxicity, cell-based.
A short description of series [3]: Cytotoxicity against HEK293 cells incubated for 72 hrs by MTT assay. The format is toxicity, cell-based. The note with it: human.
The nature of series [4]: Cytotoxicity against human HeLa-V cells incubated for 72 hrs by MTT assay. The format is functional.
For a further series, the system named is MCF7. Kind of series: Cytotoxicity against human MCF7 cells incubated for 72 hrs by MTT assay. The format is functional.
For the next series, the system named is MDA-MB-453. Kind of series: Cytotoxicity against human MDA-MB-453 cells incubated for 72 hrs by MTT assay. The series is classed as functional.
The next series deals with MDA-MB-231. The series can be described thus: Cytotoxicity against human MDA-MB-231 cells incubated for 72 hrs by MTT assay. The format is functional.
Series [5] concerns the target Tyrosyl-DNA phosphodiesterase 1 (Homo sapiens, UniProt Q9NUW8). The series can be described thus: Inhibition of Tdp1 (unknown origin) using 5'-[FAM]AACGTCAGGGTCTTCC[BHQ1]-3' as substrate measured every 55 sec by fluorescence based analysis.

Sequence of Tyrosyl-DNA phosphodiesterase 1 (Q9NUW8 whole entry): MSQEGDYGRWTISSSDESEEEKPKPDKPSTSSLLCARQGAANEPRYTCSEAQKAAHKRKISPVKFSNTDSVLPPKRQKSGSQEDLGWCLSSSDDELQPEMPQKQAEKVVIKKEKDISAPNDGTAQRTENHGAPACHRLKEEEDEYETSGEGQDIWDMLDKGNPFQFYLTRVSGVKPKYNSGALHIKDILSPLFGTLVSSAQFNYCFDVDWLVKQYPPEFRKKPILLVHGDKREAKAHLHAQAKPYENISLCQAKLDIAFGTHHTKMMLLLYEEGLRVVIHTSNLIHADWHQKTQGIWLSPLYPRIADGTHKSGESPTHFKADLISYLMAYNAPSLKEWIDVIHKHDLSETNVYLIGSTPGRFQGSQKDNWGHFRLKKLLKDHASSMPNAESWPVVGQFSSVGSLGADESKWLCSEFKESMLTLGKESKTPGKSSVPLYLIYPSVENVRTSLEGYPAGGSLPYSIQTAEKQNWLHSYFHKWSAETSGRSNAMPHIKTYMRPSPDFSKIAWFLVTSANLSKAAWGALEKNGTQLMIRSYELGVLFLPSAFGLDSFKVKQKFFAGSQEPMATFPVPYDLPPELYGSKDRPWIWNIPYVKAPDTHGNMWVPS

With `CC(C)[C@@H]1CC[C@]2(COC(=O)c3ccccc3)CC[C@]3(C)[C@H](CC[C@@H]4[C@@]5(C)CC[C@H](O)C(C)(C)[C@@H]5CC[C@]43C)[C@@H]12`, the CC50 (with RD; in [1]; with HepG2; in the series with A549; in the series on HCT-116; in the series on PC-3) was more than 100 µM throughout. In addition, the CC50 (in series [4]; with MCF7; with MDA-MB-453; in the series on MDA-MB-231) was more than 100 µM throughout. Moreover, the CC50 at 72 h in series [2] and in series [3] was more than 100 µM throughout.

`CC(C)[C@@H]1CC[C@]2(CO)CC[C@]3(C)[C@H](CC[C@@H]4[C@@]5(C)/C(=N/O)C[C@@H](O)C(C)(C)[C@@H]5CC[C@]43C)[C@@H]12`: the CC50 is more than 100 µM with RD; more than 100 µM in [1]; more than 100 µM with HepG2; more than 100 µM in the series on A549; 57.4 µM in the series with HCT-116; more than 100 µM in the series on PC-3. The CC50 (in series [4]; with MCF7; with MDA-MB-453; in the series on MDA-MB-231) was more than 100 µM in each case. This molecule registered an IC50 in series [5] of 2.9 µM. The CC50 at 72 h in series [2] and in series [3] was more than 100 µM in each case.

With `CC(C)[C@@H]1CC[C@]2(COC(=O)c3ccccc3)CC[C@]3(C)[C@H](CC[C@@H]4[C@@]5(C)OC(CC#N)C(C)(C)[C@@H]5CC[C@]43C)[C@@H]12` (mixture of isomers), the CC50 was more than 100 µM with RD; more than 100 µM in series [1]; more than 100 µM in the series with HepG2; 58.6 µM in the series with A549; more than 100 µM with HCT-116; more than 100 µM in the series on PC-3. Besides, the CC50 (in series [4]; with MCF7; in the series with MDA-MB-453; in the series on MDA-MB-231) was more than 100 µM throughout. The molecule further gave a 50% inhibitory concentration (IC50) in series [5] of 7 µM. For the same molecule, the CC50 at 72 h in [2] and in series [3] was more than 100 µM each time.

With `CC(C)[C@@H]1CC[C@]2(COC(=O)c3ccccc3)CC[C@]3(C)[C@H](CC[C@@H]4[C@@]5(C)O[C@H](CC#N)C(C)(C)[C@@H]5CC[C@]43C)[C@@H]12`, the CC50 (with RD; in series [1]; with HepG2; in the series on A549; in the series with HCT-116; in the series on PC-3) was more than 100 µM in each case. For the same molecule, the CC50 (in [4]; in the series with MCF7; in the series on MDA-MB-453; in the series on MDA-MB-231) was more than 100 µM in each case. Moreover, in [5], the IC50 worked out at 12.1 µM. In addition, the CC50 at 72 h in [2] and in [3] was more than 100 µM throughout.

For `CC1(C)CC[C@]23CC[C@]4(C)[C@H](CC[C@@H]5[C@@]6(C)O[C@@H](CC#N)C(C)(C)[C@@H]6CC[C@]54C)[C@H]2[C@H]1OC3`, the IC50 in series [5] is 8 µM.

With `CC(C)[C@@H]1CC[C@]2(COC(=O)c3ccccc3)CC[C@]3(C)[C@H](CC[C@@H]4[C@@]5(C)/C(=N/O)C[C@@H](O)C(C)(C)[C@@H]5CC[C@]43C)[C@@H]12`, the CC50 in the series on RD was more than 100 µM; in [1], more than 100 µM; with HepG2, more than 100 µM; with A549, 57.7 µM; in the series with HCT-116, more than 100 µM; with PC-3 it was more than 100 µM. Also, the CC50 (in [4]; with MCF7; in the series on MDA-MB-453; in the series with MDA-MB-231) was more than 100 µM in each case. The IC50 in series [5] was 2.9 µM. In addition, the CC50 at 72 h in series [2] and in series [3] was more than 100 µM each time.

Turning to `CC(C)[C@@H]1CC[C@]2(COC(=O)c3ccccc3)CC[C@]3(C)[C@H](CC[C@@H]4[C@@]5(C)CC=CC(C)(C)[C@@H]5CC[C@]43C)[C@@H]12`, the CC50 (in the series with RD; in [1]; with HepG2; in the series on A549; in the series with HCT-116; with PC-3) was more than 100 µM each time. In addition, the CC50 (in [4]; in the series on MCF7; in the series with MDA-MB-453; in the series with MDA-MB-231) was more than 100 µM each time. In series [5], this molecule registered a half-maximal inhibitory concentration (IC50) of more than 100 µM. Besides, the CC50 at 72 h in series [2] and in series [3] was more than 100 µM in each case.

In the case of `CC(C)[C@@H]1CC[C@]2(COC(=O)c3ccccc3)CC[C@]3(C)[C@H](CC[C@@H]4[C@@]5(C)C(=O)[C@H]6O[C@H]6C(C)(C)[C@@H]5CC[C@]43C)[C@@H]12`, the CC50 (with RD; in series [1]; in the series with HepG2; in the series with A549; with HCT-116; in the series with PC-3) was more than 100 µM each time. The CC50 (in [4]; in the series on MCF7; in the series on MDA-MB-453; in the series on MDA-MB-231) was more than 100 µM each time. Further, in series [5], the 50% inhibitory concentration (IC50) was found to be 3 µM. The CC50 at 72 h in [2] and in series [3] was more than 100 µM each time.

`CC(C)[C@@H]1CC[C@]2(COC(=O)c3ccccc3)CC[C@]3(C)[C@H](CC[C@@H]4[C@@]5(C)[C@@H](O)[C@H]6O[C@H]6C(C)(C)[C@@H]5CC[C@]43C)[C@@H]12`: the CC50 (in the series on RD; in series [1]; in the series on HepG2; with A549; with HCT-116; in the series with PC-3) was more than 100 µM throughout. In addition, the CC50 (in [4]; in the series with MCF7; with MDA-MB-453; in the series on MDA-MB-231) was more than 100 µM each time. Besides, in series [5], inhibition was half-maximal at 5.1 µM (IC50). For the same molecule, the CC50 at 72 h in series [2] and in series [3] was more than 100 µM in each case.

The molecule `CC[C@@]1(O)C(=O)OCc2c1cc1n(c2=O)Cc2cc3c(CN(C)C)c(O)ccc3nc2-1` [TOPOTECAN] had a CC50 in series [4] of 0.456 µM.

For the molecule `CC(C)[C@@H]1CC[C@]2(COCc3ccccc3)CC[C@]3(C)[C@H](CC[C@@H]4C(=O)C(C(C)(C)[C@H](CC#N)OC(=O)Cl)CC[C@]43C)[C@@H]12` (some centres undefined), the CC50 in the series on RD is more than 100 µM; in series [1], more than 100 µM; in the series on HepG2 it was more than 100 µM; in the series with A549, 56.9 µM; with HCT-116, more than 100 µM; with PC-3, more than 100 µM. In addition, the CC50 (in [4]; in the series with MCF7; with MDA-MB-453; in the series with MDA-MB-231) was more than 100 µM throughout. In series [5], this molecule returned an IC50 of 12 µM. Moreover, the CC50 at 72 h in series [2] and in series [3] was more than 100 µM throughout.

Consider `CC(C)[C@@H]1CC[C@]2(COC(=O)c3ccccc3)CC[C@]3(C)[C@H](CC[C@@H]4[C@@]5(C)[C@@H](O)C=CC(C)(C)[C@@H]5CC[C@]43C)[C@@H]12`, for which the CC50 (with RD; in series [1]; in the series on HepG2; in the series on A549; in the series on HCT-116; in the series on PC-3) was more than 100 µM each time. Moreover, the CC50 (in series [4]; in the series on MCF7; with MDA-MB-453; in the series on MDA-MB-231) was more than 100 µM throughout. The molecule further came in with an IC50 in series [5] of 9 µM. In addition, the CC50 at 72 h in series [2] and in [3] was more than 100 µM each time.

As for `CC1(C)CC[C@]23CC[C@]4(C)C(CC[C@@H]5C(=O)C(C(C)(C)[C@H](CC#N)OC(=O)Cl)CC[C@]54C)[C@H]2[C@H]1OC3` (some centres undefined), the CC50 (with RD; in series [1]; in the series with HepG2; in the series on A549; in the series on HCT-116; in the series with PC-3) was more than 100 µM throughout. The CC50 (in series [4]; with MCF7; in the series with MDA-MB-453; in the series on MDA-MB-231) was more than 100 µM throughout. In [5], this molecule yielded an IC50 of more than 100 µM. Moreover, the CC50 at 72 h in series [2] and in [3] was more than 100 µM each time.

Regarding `COc1cccc2c1C(=O)c1c(O)c3c(c(O)c1C2=O)C[C@@](O)(C(=O)CO)C[C@@H]3O[C@H]1C[C@H](N)[C@H](O)[C@H](C)O1` [DOXORUBICIN], the CC50 with RD was found to be 1.3 µM; in [1] it was 1.3 µM; in the series with HepG2, 1.8 µM; in the series with A549, 2 µM; with HCT-116, 1.3 µM; in the series with PC-3, 12.6 µM. Further, the half-maximal cytotoxic concentration (CC50) in [4] is 2.67 µM; with MCF7, 0.4 µM; in the series with MDA-MB-453, 0.04 µM; in the series with MDA-MB-231 it was 0.34 µM. In addition, the CC50 at 72 h came out at 0.5 µM in series [2] and 0.4 µM in [3].

For the molecule `CC1(C)CC[C@]23CC[C@]4(C)[C@H](CC[C@@H]5[C@@]6(C)O[C@H](CC#N)C(C)(C)[C@@H]6CC[C@]54C)[C@H]2[C@H]1OC3`, the CC50 in the series with RD was more than 100 µM; in series [1], more than 100 µM; with HepG2 it was more than 100 µM; in the series with A549 it was 34 µM; with HCT-116 it was 90.3 µM; in the series on PC-3, more than 100 µM. Besides, the CC50 is more than 100 µM in series [4], 84.9 µM with MCF7, more than 100 µM in the series on MDA-MB-453 and more than 100 µM with MDA-MB-231. The molecule also gave an IC50 in series [5] of 3.59 µM. The 50% cytotoxic concentration (CC50) at 72 h in [2] and in series [3] was more than 100 µM in each case.

The values are drawn from ChEMBL document CHEMBL5608213, “Synthesis of furanotriterpenoids from betulin and evaluation of Tyrosyl-DNA phosphodiesterase 1 (Tdp1) inhibitory properties of new semi-synthetic triterpenoids” (Eur J Med Chem, 2024).
